According to patent US20200129450A1, “COMPOSITION COMPRISING OSMUNDACETONE OR PHARMACEUTICALLY ACCEPTABLE SALT THEREOF FOR PREVENTING OR TREATING BONE DISEASE” (KORPHARM CO., LTD., priority 2016, published 2020):
“Also recorded” adds a separate entry of the source.

Columns and labels:
[1] = test system: osteoclasts differentiated from mouse bone marrow cells; experiment: TRAP assay, osteoclast proliferation and differentiation inhibitory activity; type: cell-based; details: for IC50: tested at 1, 4, 7 and 10 μM, TRAP-positive multinucleated cells
Protocol: Bone marrow cells were collected from the femur and shin bones of 5-8 week old male C57BL/6 mice. Muscles were removed from the bones, and stored in cold phosphate buffered saline (PBS; # CAP08-050, GenDEPOT, Katy, Tex., USA).
Both ends of each bone were cut, and the bone marrow was flushed with a flushing medium (serum-free α-MEM, 2 mM ethylenediaminetetraacetic acid) kept cool, using a 25 G needle.
Bone marrow cells were collected by centrifugation at 3,000 rpm for 3 min using Labogene 1248R (Labogene, Lynge, Denmark), and then resuspended in a wash medium. Thereafter, 8 mL of the collected bone marrow cells were overlaid on 6 mL of a lymphocyte isolation medium (LSM; #50494, MP Biomedicals, Santa Ana, Calif., USA), followed by centrifugation at 1,600 rpm for 20 minutes, thereby isolating mononuclear cells.
The mononuclear cell bands were collected from the media interface, and incubated using complete α-MEM (containing 10% fatal bovine serum (FBS; Capricorn Scientific, Ebsdorfergrund, Germany) and 1% (v/v) antibiotic (including 100 U/mL penicillin G and […] streptomycin)) in the conditions of 37° C. and 5% CO2 while the medium was exchanged every three days.
In order to promote the differentiation of osteoclasts, 1×10^5 cells were incubated in 0.5 mL of the medium per well in a 48-well plate, in the presence of osteoclast differentiation factors, M-CSF (60 ng/mL) and RANKL (150 ng/mL), purchased from PeproTec (Seoul, Korea). As known, macrophages/monocytes derived from one bone marrow differentiated into mature multinucleated osteoclasts after 6 days (Gurt et al., 2015).
The tibia and femur of 6-8 week old male C57BL/6 mice were aseptically resected, and bone marrow cells were aseptically collected using a syringe (21 G, Korea Green Cross). The bone marrow cells were floated in 500 μL of α-MEM medium (Gibco BRL Co.) containing sodium bicarbonate (2.0 g/L), streptomycin (100 mg/L), and penicillin ([…]), dispensed in a 48-well plate, and assayed in triplicate. Mononuclear cells as precursor cells of osteoclasts were treated with RANKL and M-CSF as differentiation promoting factors, and thus differentiated into osteoclasts within 5-7 days.
2-1) Sample preparation: The hot-water extract, EA extract, or fraction of Osmunda japonica were prepared by the same methods as in section 1 of <Example 1>. The EA-2 extract was dissolved in a minimum amount of DMSO, and then diluted with water to 70% of the original volume of the hot-water extract assuming that the yield of EA-2 extraction was approximately 70%. 2-2) Sample administration: The sample was continuously administered to a medium at 1:20 (v/v; 25 μL of the sample per 500 μL of the medium) from day 1 of incubation of bone marrow cells, while the medium was exchanged every 2-3 days. 2-3) Measurement of osteoclast differentiation Osteoclasts were defined by TRAP-positive multinucleated cells stained with TRAP. As for TRAP stain solution, 5 mg of naphthol AS-MS phosphate (Sigma N-4875) as a base and 25 mg of Fast Red Violet LB salt as a color developing reagent were dissolved in about 0.5 mL of N,N-dimethylformamide, and then mixed with 0.1N NaHCO3 buffer solution (50 mL) containing 50 mM tartaric acid. The reaction reagent was stored in a refrigerator before use.
After bone marrow cells were incubated in a medium containing differentiation promoting factors for 7 days, the medium was removed, and the cells were washed with PBS, and then immobilized with PBS containing 10% formalin for 2-5 minutes. Thereafter, the cells were immobilized with a 1:1 mixture solution of ethanol and acetone, followed by drying. The immobilized cells were treated with the TRAP stain solution for 15 minutes, and washed with PBS, and then the degree of cell staining was observed by a microscope.
In the microscope field of view, cells having two or more nuclei in the TRAP-positive cells were determined to be osteoclasts, and the number of cells was measured. […]

OCN in MC3T3-E1 cells = experiment: Western blot, OCN production by osteoblasts; type: cell-based, mouse; details: 50 μM
Protocol: In order to analyze the expression of osteoblast differentiation markers during a differentiation procedure, 3×10^5 MC3T3-E1 cells were dispensed in a 100 mm culture plate together with 10 mL of complete α-MEM containing ascorbic acid (50 μg/mL) and 10 mM R-glycerophosphate per well. Here, 50 μM osmundacetone was added or not added, and the cells were incubated at 37 […] in a 5% CO2 incubator for 21 days while the medium was exchanged every 3-4 days.
The negative control cells were cultured without differentiation factors, and the osteoblasts and a culture thereof were dispensed, and then collected on day 7, 14, or 21.
The cells were lysed using RIPA buffer, and then the expression of runt-related transcription factor 2 (RUNX2) was analyzed. Also for analysis of OCN secretion, the culture was collected, and normalized by cellular DNA.
Proteins were analyzed using SDS-PAGE on 12.5% […] gels, and transferred on polyvinylidene difluoride (PVDF) membrane through electrophoresis.
The membrane was blocked using non-fat milk, and examined using anti-RUNX2 (D1H7) rabbit monoclonal antibody (#8486, Cell Signaling Technology, MA, USA) or anti-OCN (FL-95) antibody (# sc-30045, Santa Cruz Biotechnology, TX, USA). Anti-actin antibody (# M177-3, MEDICAL & BIOLOGICAL LABORATORIES CO., LTD., Nagoya, Aichi, Japan) was used as an internal reference. […]

**Q.** With `CC(=O)/C=C/c1ccc(O)c(O)c1` [Osmundacetone, (3E)-4-(3,4-dihydroxyphenyl)-3-buten-2-one] as the compound, how does the “formation of giant osteoclasts, number compared with the positive control group” value ([1]; 1 μM) read?
**A.** The value was “smaller compared with the positive control group”.

**Q.** What about the “formation of giant osteoclasts / differentiation of bone marrow mononuclear cells into osteoclasts” value ([1]; 10 μM osmundacetone (printed 10M)) of the same compound?
**A.** Its value is “significantly inhibited; also recorded: almost completely inhibited”.

**Q.** And the IC50 ([1]; Mus musculus, Osteoclast)?
**A.** Its IC50 is at most 8 µM.

**Q.** What about the inhibition at 7 µM ([1]; Mus musculus, Osteoclast, 7 μM, read-out: inhibition of differentiation of bone marrow mononuclear cells into osteoclasts) of the same compound?
**A.** Its inhibition at 7 µM is 3 to 40%.

**Q.** What about the inhibition at 10 µM ([1]; Mus musculus, Osteoclast, 10 μM, read-out: inhibition of differentiation of bone marrow mononuclear cells into osteoclasts) of the same compound?
**A.** Its inhibition at 10 µM is at least 95%.

**Q.** What about the “proliferation of osteoclast precursor cells” value ([1]; osmundacetone 10M as printed) of the same compound?
**A.** Its value is “significantly inhibited”.

**Q.** And the IC50 [1]?
**A.** Its IC50 is 8 µM.

**Q.** And the “OCN production by osteoblasts, increase compared with non-treated positive control cells” value (OCN in MC3T3-E1 cells; day 14)?
**A.** Its value is 2.9 times.

**Q.** What about the “OCN production by osteoblasts, increase compared with non-treated positive control cells” value (OCN in MC3T3-E1 cells; day 21) of the same compound?
**A.** Its value is 1.2 times.
